Our source for the IC50 values is patent US20250084078A1, “FUSED RING-SUBSTITUTED SIX-MEMBERED HETEROCYCLIC COMPOUND, AND PREPARATION METHOD THEREFOR AND USE THEREOF” (GENFLEFT THERAPEUTICS (SHANGHAI) INC., priority 2022, published 2025).

pIC50: −log10 of the molar value.

The pIC50 is the IC50 on a negative log10 scale, so that one unit is a factor of ten. The low end stands for a high IC50, the high end for a low IC50.

For this experiment, the target named is HPK1 (Homo sapiens, UniProt Q92918). Briefly: SLP76 phosphorylation assay (intracellular HPK1 inhibitory activity, p-SLP76 S376 ELISA in Jurkat cells). To be noted: p-SLP76 IC50, Jurkat, Clone E6-1 cells; 1 h compound pre-incubation; anti-CD3 beads stimulation 20 min; Phospho-SLP-76 (Ser376) ELISA. On the technique in general: ELISA stands for enzyme-linked immunosorbent assay.
HPK1, sequence (Q92918 whole entry): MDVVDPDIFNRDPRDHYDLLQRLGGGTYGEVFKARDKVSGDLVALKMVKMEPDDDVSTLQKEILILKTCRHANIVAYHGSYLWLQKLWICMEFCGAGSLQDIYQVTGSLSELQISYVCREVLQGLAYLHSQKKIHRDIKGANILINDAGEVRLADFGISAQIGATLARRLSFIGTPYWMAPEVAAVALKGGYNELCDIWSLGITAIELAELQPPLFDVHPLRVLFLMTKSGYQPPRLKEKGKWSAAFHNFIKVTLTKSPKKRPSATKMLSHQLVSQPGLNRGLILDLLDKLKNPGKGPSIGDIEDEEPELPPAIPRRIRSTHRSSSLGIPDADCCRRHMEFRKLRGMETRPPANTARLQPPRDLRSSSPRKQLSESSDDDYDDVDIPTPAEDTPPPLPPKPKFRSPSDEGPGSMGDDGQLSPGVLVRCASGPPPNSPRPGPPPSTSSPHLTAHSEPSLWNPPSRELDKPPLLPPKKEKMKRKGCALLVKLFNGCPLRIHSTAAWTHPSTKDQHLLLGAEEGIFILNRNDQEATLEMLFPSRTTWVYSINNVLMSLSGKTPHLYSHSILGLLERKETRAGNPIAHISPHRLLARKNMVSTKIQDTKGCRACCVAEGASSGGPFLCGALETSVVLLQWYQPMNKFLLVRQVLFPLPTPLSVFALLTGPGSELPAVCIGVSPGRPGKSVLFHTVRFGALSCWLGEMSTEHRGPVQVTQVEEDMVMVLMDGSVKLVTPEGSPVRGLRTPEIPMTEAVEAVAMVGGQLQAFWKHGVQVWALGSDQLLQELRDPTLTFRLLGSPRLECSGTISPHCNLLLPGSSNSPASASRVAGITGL
Experimental: SLP76 Phosphorylation Assay
Intracellular HPK1 inhibitory activity was tested by the detection of SLP76 phosphorylation at S376.
Preparation of 1000× drug stock plate: a 1000× compound stock plate was prepared. […] The compound stock plate was sealed with a sealing film and stored in a −20° C. refrigerator for later use.
Preparation of Beads wash buffer: 0.1 mL FBS and 0.4 mL 0.5 M EDTA (with a final concentration of 2 mM) were added to 100 mL PBS and stored in a 4° C. refrigerator for later use.
100× Protease Inhibitor Cocktail in 1/20 total volume was added and stored on wet ice for later use. The buffer was ready to use.
Cell inoculation and dosing: the 1000× drug stock plate was taken and melted at room temperature in the dark. […] Jurkat cells in the logarithmic growth phase were selected and collected. […] The cells were inoculated into a 96-well plate (the volume was 90 μL per well), and a blank control well (without cells inoculation, and in which 110 μL of medium was added) was set. 10 μL of a drug-containing culture medium (10×) was transferred from the 10× drug intermediate plate into the 96-well cell plate (with a final concentration of 0.1% DMSO), and set a DMSO control group (in which 0.1% DMSO was added to the treated cells), a stimulated control group (in which 10 μL of culture medium was added to treat cells) and an unstimulated group (in which 10 μL of culture medium was added to treat cells). The wells were duplicated, gently patted, mixed, and then placed into a 5% CO2 incubator at 37° C. for 1 h.
Anti-CD3 beads stimulation: Dynabeads anti-human CD3 was taken, shaken, and mixed for 60 s. The required volume of beads was pipetted, and an equal volume or at least 1 mL of washing solution was added to wash once. Fresh complete medium was then added to resuspend and adjust the density of the beads to 4×10^7/mL, and the beads were placed on ice for later use. At the end of drug pre-incubation, the cell culture plate was taken out. 10 μL Dynabeads anti-human CD3 was added to each well to treat the cells, and 10 μL the culture medium was added to the unstimulated group. The cell culture plate was shaken to mix well at 2500 rpm for 10 s, and then placed into a 5% CO2 incubator at 37° C. and continued to culture for 20 min.
Detection of p-SLP76 protein level: PathScan Phospho-SLP-76 (Ser376) Sandwich ELISA Kit was applied to detect p-SLP76 protein level. At the end of the Anti-CD3 beads stimulation, the cell culture plate was removed from the incubator. […] After lysis, the cell culture plate was centrifuged at 4° C., 400×g for 5 min. 25 μL of sample and 75 μL of sample diluent were added to each well, and the plate was placed in a 5% CO2 incubator at 37° C. for 2 h. The subsequent detection steps were carried out following the kit instructions, and the absorbance (OD value) of each well was read at 450 nm by a microplate reader.
For `CCc1c[nH]c2ncc(-c3cc4c(c([C@@H]5COCCN5)c3)CN(C(=O)C(C)(C)O)CC4)nc12` [Compound Z540, (R)-1-(6-(7-ethyl-5H-pyrrolo[2,3-b]pyrazin-2-yl)-8-(morpholin-3-yl)-3,4-dihydroisoquinolin-2(1H)-yl)-2-hydroxy-2-methylpropan-1-one], the pIC50 was 6.28. As for `Cc1c[nH]c2ncc(-c3cc4c(c([C@@H]5COCCN5)c3)CN(C(=O)N3CC5(CCOCC5)C3)CC4)cc12` [Compound Z563, (R)-(6-(3-methyl-1H-pyrrolo[2,3-b]pyridin-5-yl)-8-(morpholin-3-yl)-3,4-dihydroisoquinolin-2(1H)-yl)(7-oxa-2-azaspiro[3.5]nonan-2-yl)methanone], the figure is 6.76; as for `Cc1c[nH]c2ncc(-c3cc4c(c([C@@H]5COCCN5)c3)CN(C(=O)N3CCOC(C)(C)C3)CC4)cc12` [Compound Z453, (R)-(2,2-dimethylmorpholine)(6-(3-methyl-1H-pyrrolo[2,3-b]pyridin-5-yl)-8-(morpholin-3-yl)-3,4-dihydroisoquinolin-2(1H)-yl)methanone], 6.83; as for `Cc1c[nH]c2ncc(-c3cc4c(c([C@@H]5COCCN5)c3)CN(C(=O)C3CC5CCC(C3)O5)CC4)cc12` (stereo partly drawn) [Compound Z504, (8-oxabicyclo[3.2.1]octan-3-yl)(6-(3-methyl-1H-pyrrolo[2,3-b]pyridin-5-yl)-8[(R)-morpholin-3-yl)-3,4-dihydroisoquinolin-2(1H)-yl)-methanone], 6.63.

Take `Cc1c[nH]c2ncc(-c3cc4c(c([C@@H]5COCCN5)c3)CN(C(=O)N3C[C@@H]5C[C@H]3CO5)CC4)cc12` [Compound Z463]: the pIC50 was 6.53. Then `Cc1c[nH]c2ncc(-c3cc4c(c(C5COCCN5)c3)CN(C(=O)[C@](C)(O)C(F)(F)F)CC4)cc12` (single isomer, unassigned) [Compound Z309-1], with 7.08. In turn, `O=C(N1CCc2cc(-c3cnc4[nH]cc(Cl)c4c3)cc([C@@H]3COCCN3)c2C1)C1(O)CCOCC1` [Compound Z485, (R)-(6-(3-chloro-1H-pyrrolo[2,3-b]pyridin-5-yl)-8-(morpholin-3-yl)-3,4-dihydroisoquinolin-2(1H)-yl)(4-hydroxytetrahydro-2H-pyran-4-yl)methanone] had a pIC50 of 6.90. As for `Cc1c[nH]c2ncc(-c3cc4c(c([C@@H]5COCCN5)c3)CN(C(=O)N3CCO[C@@H](C)C3)CC4)cc12` [Compound Z452, (6-(3-methyl-1H-pyrrolo[2,3-b]pyridin-5-yl)-8-((R)-morpholin-3-yl)-3,4-dihydroisoquinolin-2(1H)-yl)((S)-2-methylmorpholine)methanone], the figure is 6.62; as for `Cc1cc(C(=O)N2CCc3cc(-c4cnc5[nH]cc(Cl)c5c4)cc([C@@H]4COCCN4)c3C2)nc(C)n1` [Compound Z531, (R)-(6-(3-chloro-1H-pyrrolo[2,3-b]pyridin-5-yl)-8-(morpholin-3-yl)-3,4-dihydroisoquinolin-2(1H)-yl)(2,6-dimethylpyrimidin-4-yl)methanone], 6.41; as for `CC(=O)c1c[nH]c2ncc(-c3cc4c(c([C@@H]5COCCN5)c3)CN(C(=O)C(C)(C)O)CC4)cc12` [Compound Z593, (R)-1-(6-(3-acetyl-1H-pyrrolo[2,3-b]pyridin-5-yl)-8-(morpholin-3-yl)-3,4-dihydroisoquinolin-2(1H)-yl)-2-hydroxy-2-methylpropan-1-one], 6.50. For the compound `Cc1c(Cl)[nH]c2ncc(-c3cc4c(c([C@@H]5COCCN5)c3)CN(C(=O)C(C)(C)O)CC4)cc12` [Compound Z481, (R)-1-(6-(2-chloro-3-methyl-1H-pyrrolo[2,3-b]pyridin-5-yl)-8-(morpholin-3-yl)-3,4-tetrahydroisoquinolin-2(1H)-yl)-2-hydroxy-2-methylpropan-1-one], the pIC50 is 6.35. In turn, `CC(C)(O)C(=O)N1CCc2cc(-c3cnc4[nH]cc(C#N)c4c3)cc([C@@H]3COCCN3)c2C1` [Compound Z506, (R)-5-(2-(2-hydroxy-2-methylpropanoyl)-8-(morpholin-3-yl)-1,2,3,4-tetrahydroisoquinolin-6-yl)-1H-pyrrolo[2,3-b]pyridine-3-carbonitrile] had a pIC50 of 6.16. Then `Cc1c[nH]c2ncc(-c3cc4c(c([C@@H]5COCCN5)c3)CN(S(=O)(=O)C3CC3)CC4)cc12` [Compound Z467, (R)-3-[2-cyclopropylsulfonyl-6-(3-methyl-1H-pyrrolo[2,3-b]pyridin-5-yl)-1,2,3,4-tetrahydroisoquinolin-8-yl]morpholine], with 6.41.

Regarding `CC1(C)COCCN1C(=O)N1CCc2cc(-c3cnc4[nH]cc(Cl)c4c3)cc([C@@H]3COCCN3)c2C1` [Compound Z503, (R)-(6-(3-chloro-1H-pyrrolo[2,3-b]pyridin-5-yl)-8-(morpholin-3-yl)-3,4-dihydroisoquinolin-2(1H)-yl)(3,3-dimethylmorpholino)methanone], the pIC50 was 6.77. With `Cc1c[nH]c2ncc(-c3cc4c(c([C@@H]5COCCN5)c3)CN(C(=O)N3CC5(COC5)C3)CC4)cc12` [Compound Z579, (R)-(6-(3-methyl-1H-pyrrolo[2,3-b]pyridin-5-yl)-8-(morpholin-3-yl)-3,4-dihydroisoquinolin-2(1H)-yl)(2-oxa-6-oxaspiro[3.3]heptan-6-yl)methanone], the pIC50 was 6.56. `O=C(N1CCc2cc(-c3cnc4[nH]cc(Cl)c4n3)cc([C@@H]3COCCN3)c2C1)N1CC2CCC1CO2` (stereo partly drawn) [Compound Z550, (2-oxa-5-azabicyclo[2.2.2]octan-5-yl)(6-(7-chloro-5H-pyrrolo[2,3-b]pyrazin-2-yl)-8-((R)-morpholin-3-yl)-3,4-dihydroisoquinolin-2(1H)-yl)methanone] gave a pIC50 of 6.93. Consider `Cc1c(F)[nH]c2ncc(-c3cc4c(c([C@@H]5COCCN5)c3)CN(C(=O)C(C)(C)O)CC4)cc12` [Compound Z510, (R)-1-(6-(2-fluoro-3-methyl-1H-pyrrolo[2,3-b]pyridin-5-yl)-8-(morpholin-3-yl)-3,4-tetrahydroisoquinolin-2(1H)-yl)-2-hydroxy-2-methylpropan-1-one], for which the pIC50 is 6.55. As for `Cc1c[nH]c2ncc(-c3cc4c(c([C@@H]5COCCN5)c3)CN(C(=O)N3C(C)COCC3C)CC4)cc12` (stereo partly drawn) [Compound Z460, (3,5-dimethylmorpholine)(6-(methyl-methyl-1H-pyrrolo[2,3-b]pyridin-5-yl)-8-((R)-morpholin-3-yl)-3,4-dihydroisoquinolin-2(1H)-yl)methanone], the figure is 6.75; as for `C[C@@H]1CN(C(=O)N2CCc3cc(-c4cnc5[nH]cc(Cl)c5c4)cc([C@@H]4COCCN4)c3C2)C[C@@H](C)O1` [Compound Z599, (6-(3-chloro-1H-pyrrolo[2,3-b]pyridin-5-yl)-8-((R)-morpholin-3-yl)-3,4-dihydroisoquinolin-2(1H)-yl)((2R,6R)-2,6-dimethylmorpholinyl)methanone], 6.74. `N#Cc1c[nH]c2ncc(-c3cc4c(c([C@@H]5COCCN5)c3)CN(C(=O)N3C5CCC3COC5)CC4)nc12` [Compound Z583, 2-(2-(3-oxa-8-azabicyclo[3.2.1]octane-8-carbonyl)-8-((R)-morpholin-3-yl)-1,2,3,4-tetrahydroisoquinolin-6-yl)-5H-pyrrolo[2,3-b]pyrazine-7-carbonitrile] had a pIC50 of 5.57. In turn, `O=C(C1CCOCC1)N1CCc2c(cc(-c3cnc4[nH]cc(Cl)c4c3)cc2[C@@H]2COCCN2)C1` [Compound Z487, (R)-(7-(3-chloro-1H-pyrrolo[2,3-b]pyridin-5-yl)-5-(morpholin-3-yl)-3,4-dihydroisoquinolin-2(1H)-yl)(tetrahydro-2H-pyran-4-yl)methanone] showed a pIC50 of 6.81. Regarding `CO[C@@H]1CCN(C(=O)N2CCc3cc(-c4cnc5[nH]cc(C)c5c4)cc([C@@H]4COCCN4)c3C2)C1` [Compound Z478], the negative-log IC50 (pIC50) was 6.48. Then `COC1(C(=O)N2CCc3cc(-c4cnc5[nH]cc(C)c5c4)cc([C@@H]4COCCN4)c3C2)CC1` [Compound Z373, (R)-(1-methoxycyclopropyl)(6-(3-methyl-1H-pyrrolo[2,3-b]pyridin-5-yl)-8-(morpholin-3-yl)-3,4-dihydroisoquinolin-2(1H)-yl)methanone], with 6.80; and `Cc1c[nH]c2ncc(-c3cc4c(c([C@@H]5COCCN5)c3)CN(C(=O)N3CC(C)OC(C)C3)CC4)cc12` (stereo partly drawn) [Compound Z459, (2,6-dimethylmorpholine)(6-(3-methyl-1H-pyrrolo[2,3-b]pyridin-5-yl)-8-((R)-morpholin-3-yl)-3,4-dihydroisoquinolin-2(1H)-yl)methanone], with 6.77; and `CS(=O)(=O)N1CCc2cc(-c3cnc4[nH]cc(Cl)c4c3)cc([C@@H]3COCCN3)c2C1` [Compound Z501, (R)-3-(6-(3-chloro-1H-pyrrolo[2,3-b]pyridin-5-yl)-2-(methylsulfonyl)-1,2,3,4-tetrahydroisoquinolin-8-yl)morpholine], with 6.55. In turn, `C[C@H]1COCCN1C(=O)N1CCc2cc(-c3cnc4[nH]cc(Cl)c4c3)cc([C@@H]3COCCN3)c2C1` [Compound Z613] had a pIC50 of 6.87. Take `CC1(C)CC(O)CN1C(=O)N1CCc2cc(-c3cnc4[nH]cc(Cl)c4n3)cc([C@@H]3COCCN3)c2C1` (stereo partly drawn) [Compound Z569, (6-(7-chloro-5H-pyrrolo[2,3-b]pyrazin-2-yl)-8-((R)-morpholin-3-yl)-3,4-dihydroisoquinolin-2(1H)-yl)(4-hydroxy-2,2-dimethylpyrrolidin-1-yl)methanone]: the pIC50 was 6.81. Then `Cc1c[nH]c2ncc(-c3cc4c(c([C@@H]5COCCN5)c3)CN(C(=O)C3(C)COC3)CC4)cc12` [Compound Z505, (R)-(6-(3-methyl-1H-pyrrolo[2,3-b]pyridin-5-yl)-8-(morpholin-3-yl)-3,4-dihydroisoquinolin-2(1H)-yl)(3-methyloxetan-3-yl)methanone], with 6.58; and `COC1CN(C(=O)N2CCc3cc(-c4cnc5[nH]cc(C)c5c4)cc([C@@H]4COCCN4)c3C2)C(C)(C)C1` (stereo partly drawn) [Compound Z461, (4-methoxy-2,2-dimethylpyrrolidin-1-yl)(6-(3-methyl-1H-pyrrolo[2,3-b]pyridin-5-yl)-8-((R)-morpholin-3-yl)-3,4-dihydroisoquinolin-2(1H)-yl)methanone], with 6.71.
